Data from patent publication US20250059171A1 (Hoffmann-La Roche Inc., priority 2021, published 2025).
Where two headings read alike, the source gives them in different places.

Columns and labels:
MERS-CoV 3CLpro = MERS-CoV 3CLpro (Middle East respiratory syndrome-related coronavirus, UniProt K9N7C7); test: biochemical
HCoV-229E 3CLpro = HCoV-229E 3CLpro (Human coronavirus 229E, UniProt P0C6X1); test: HCoV-229E 3CLpro inhibition assay (FRET); type: biochemical
SARS-CoV 3CLpro = SARS-CoV 3CLpro (Severe acute respiratory syndrome coronavirus, UniProt P0C6X7); test: biochemical
SARS-CoV-2 3CLpro = SARS-CoV-2 3CLpro (Severe acute respiratory syndrome coronavirus 2, UniProt P0DTD1); test: biochemical

Chain of MERS-CoV 3CLpro (K9N7C7 3248-3553): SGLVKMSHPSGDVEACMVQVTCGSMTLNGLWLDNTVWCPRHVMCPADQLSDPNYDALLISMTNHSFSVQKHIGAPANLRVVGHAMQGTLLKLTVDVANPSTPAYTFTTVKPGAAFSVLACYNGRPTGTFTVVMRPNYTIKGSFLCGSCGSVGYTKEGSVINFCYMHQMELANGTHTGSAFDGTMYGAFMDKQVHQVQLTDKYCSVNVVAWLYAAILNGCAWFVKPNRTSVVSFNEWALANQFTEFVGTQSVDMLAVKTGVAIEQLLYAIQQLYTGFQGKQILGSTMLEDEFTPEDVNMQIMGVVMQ
Chain of HCoV-229E 3CLpro (P0C6X1 2966-3267): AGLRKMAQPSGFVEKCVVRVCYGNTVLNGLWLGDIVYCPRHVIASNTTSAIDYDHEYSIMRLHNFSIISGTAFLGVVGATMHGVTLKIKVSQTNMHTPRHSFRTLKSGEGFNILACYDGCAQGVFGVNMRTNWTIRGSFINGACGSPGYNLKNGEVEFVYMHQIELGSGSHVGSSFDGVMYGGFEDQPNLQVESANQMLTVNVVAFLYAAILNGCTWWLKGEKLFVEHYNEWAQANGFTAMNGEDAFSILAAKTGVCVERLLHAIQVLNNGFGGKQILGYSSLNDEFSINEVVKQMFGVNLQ

Structure (SMILES): CC(C)(C)[C@H](Nc1cc(F)ncn1)C(=O)N1C[C@@H]2CCC[C@@H]2[C@H]1C(=O)NN(C[C@@H]1CCNC1=O)C(=O)[C@H](F)Cl [Example 182]
- IC50 (MERS-CoV 3CLpro): 89 nM
- IC50 (HCoV-229E 3CLpro): 37 nM
- IC50 (SARS-CoV 3CLpro): 12 nM
- IC50 (SARS-CoV-2 3CLpro): 11 nM

Structure (SMILES): CC(C)(C)[C@H](Nc1ncncc1F)C(=O)N1C[C@@H]2CCC[C@@H]2[C@H]1C(=O)NN(C[C@@H]1CCNC1=O)C(=O)[C@H](F)Cl [Example 183]
- IC50 (MERS-CoV 3CLpro): 174 nM
- IC50 (HCoV-229E 3CLpro): 59 nM
- IC50 (SARS-CoV 3CLpro): 16 nM
- IC50 (SARS-CoV-2 3CLpro): 11 nM

Structure (SMILES): CC(C)(C)[C@H](Nc1ccccn1)C(=O)N1C[C@@H]2CCC[C@@H]2[C@H]1C(=O)NN(C[C@@H]1CCNC1=O)C(=O)[C@H](F)Cl [Example 184]
- IC50 (MERS-CoV 3CLpro): 275 nM
- IC50 (HCoV-229E 3CLpro): 86 nM
- IC50 (SARS-CoV 3CLpro): 41 nM
- IC50 (SARS-CoV-2 3CLpro): 16 nM

Structure (SMILES): CC[C@H](C)[C@H](NC(=O)[C@H](F)Cl)C(=O)N1C[C@H]2[C@@H]([C@H]1C(=O)NN(C[C@@H]1CCNC1=O)C(=O)[C@H](F)Cl)C2(C)C [Example 185, (2R)-2-chloro-N-[(1S,2S)-1-[(1R,2S,5S)-2-[[[(2R)-2-chloro-2-fluoro-acetyl]-[[(3S)-2-oxopyrrolidin-3-yl]methyl]amino]carbamoyl]-6,6-dimethyl-3-azabicyclo[3.1.0]hexane-3-carbonyl]-2-methyl-butyl]-2-fluoro-acetamide]
- IC50 (MERS-CoV 3CLpro): 99 nM
- IC50 (HCoV-229E 3CLpro): 40 nM
- IC50 (SARS-CoV 3CLpro): 21 nM
- IC50 (SARS-CoV-2 3CLpro): 11 nM

Structure (SMILES): CC[C@H](C)[C@H](NC(=O)[C@@H](F)Cl)C(=O)N1C[C@H]2[C@@H]([C@H]1C(=O)NN(C[C@@H]1CCNC1=O)C(=O)[C@@H](F)Cl)C2(C)C [Example 186, (2S)-2-chloro-N-[(1S,2S)-1-[(1R,2S,5S)-2-[[[(2S)-2-chloro-2-fluoro-acetyl]-[[(3S)-2-oxopyrrolidin-3-yl]methyl]amino]carbamoyl]-6,6-dimethyl-3-azabicyclo[3.1.0]hexane-3-carbonyl]-2-methyl-butyl]-2-fluoro-acetamide]
- IC50 (MERS-CoV 3CLpro): 69 nM
- IC50 (HCoV-229E 3CLpro): 49 nM
- IC50 (SARS-CoV 3CLpro): 23 nM
- IC50 (SARS-CoV-2 3CLpro): 13 nM

Structure (SMILES): CC[C@H](C)[C@H](NC(=O)[C@@H](F)Cl)C(=O)N1CC(C)(C)C[C@H]1C(=O)NN(C[C@@H]1CCNC1=O)C(=O)[C@@H](F)Cl [Example 187, (2S)-2-chloro-N-[(1S,2S)-1-[(2S)-2-[[[(2S)-2-chloro-2-fluoro-acetyl]-[[(3S)-2-oxopyrrolidin-3-yl]methyl]amino]carbamoyl]-4,4-dimethyl-pyrrolidine-1-carbonyl]-2-methyl-butyl]-2-fluoro-acetamide]
- IC50 (MERS-CoV 3CLpro): 167 nM
- IC50 (HCoV-229E 3CLpro): 36 nM
- IC50 (SARS-CoV 3CLpro): 43 nM
- IC50 (SARS-CoV-2 3CLpro): 24 nM

Structure (SMILES): CC[C@H](C)[C@H](NC(=O)[C@H](F)Cl)C(=O)N1C[C@H]2[C@@H]([C@H]1C(=O)NN(C[C@@H]1CCCNC1=O)C(=O)[C@H](F)Cl)C2(C)C [Example 188, (2R)-2-chloro-N-[(1S,2S)-1-[(1R,2S,5S)-2-[[[(2R)-2-chloro-2-fluoro-acetyl]-[[(3S)-2-oxo-3-piperidyl]methyl]amino]carbamoyl]-6,6-dimethyl-3-azabicyclo[3.1.0]hexane-3-carbonyl]-2-methyl-butyl]-2-fluoro-acetamide]
- IC50 (MERS-CoV 3CLpro): 68 nM
- IC50 (HCoV-229E 3CLpro): 26 nM
- IC50 (SARS-CoV 3CLpro): 12 nM
- IC50 (SARS-CoV-2 3CLpro): 8 nM

Structure (SMILES): CC[C@H](C)[C@H](NC(=O)[C@@H](F)Cl)C(=O)N1C[C@H]2[C@@H]([C@H]1C(=O)NN(C[C@@H]1CCCNC1=O)C(=O)[C@@H](F)Cl)C2(C)C [Example 189, (2S)-2-chloro-N-[(1S,2S)-1-[(1R,2S,5S)-2-[[[(2S)-2-chloro-2-fluoro-acetyl]-[[(3S)-2-oxo-3-piperidyl]methyl]amino]carbamoyl]-6,6-dimethyl-3-azabicyclo[3.1.0]hexane-3-carbonyl]-2-methyl-butyl]-2-fluoro-acetamide]
- IC50 (MERS-CoV 3CLpro): 50 nM
- IC50 (HCoV-229E 3CLpro): 24 nM
- IC50 (SARS-CoV 3CLpro): 10 nM
- IC50 (SARS-CoV-2 3CLpro): 8 nM

Structure (SMILES): CC[C@H](C)[C@H](NC(=O)[C@H](F)Cl)C(=O)N1C[C@@H]2CCC[C@@H]2[C@H]1C(=O)NN(C[C@@H]1CCCNC1=O)C(=O)[C@H](F)Cl [Example 190, (2R)—N-[(1S,2S)-1-[(3S,3aS,6aR)-3-[[[(2R)-2-chloro-2-fluoro-acetyl]-[[(3S)-2-oxo-3-piperidyl]methyl]amino]carbamoyl]-3,3a,4,5,6,6a-hexahydro-1H-cyclopenta[c]pyrrole-2-carbonyl]-2-methyl-butyl]-2-chloro-2-fluoro-acetamide]
- IC50 (MERS-CoV 3CLpro): 59 nM
- IC50 (HCoV-229E 3CLpro): 29 nM
- IC50 (SARS-CoV 3CLpro): 11 nM
- IC50 (SARS-CoV-2 3CLpro): 8 nM

Structure (SMILES): CC[C@H](C)[C@H](NC(=O)[C@@H](F)Cl)C(=O)N1C[C@@H]2CCC[C@@H]2[C@H]1C(=O)NN(C[C@@H]1CCCNC1=O)C(=O)[C@@H](F)Cl [Example 191, (2S)—N-[(1S,2S)-1-[(3S,3aS,6aR)-3-[[[(2S)-2-chloro-2-fluoro-acetyl]-[[(3S)-2-oxo-3-piperidyl]methyl]amino]carbamoyl]-3,3a,4,5,6,6a-hexahydro-1H-cyclopenta[c]pyrrole-2-carbonyl]-2-methyl-butyl]-2-chloro-2-fluoro-acetamide]
- IC50 (MERS-CoV 3CLpro): 49 nM
- IC50 (HCoV-229E 3CLpro): 27 nM
- IC50 (SARS-CoV 3CLpro): 11 nM
- IC50 (SARS-CoV-2 3CLpro; read-out: IC50 in SARS-CoV-2 3CLpro assay): 7 nM

Structure (SMILES): CC[C@H](C)[C@H](NC(=O)[C@H](F)Cl)C(=O)N1C[C@@H]2CCC[C@@H]2[C@H]1C(=O)NN(C[C@H]1CCCNC1=O)C(=O)[C@H](F)Cl [Example 192, (2R)—N-[(1S,2S)-1-[(3S,3aS,6aR)-3-[[[(2R)-2-chloro-2-fluoro-acetyl]-[[(3R)-2-oxo-3-piperidyl]methyl]amino]carbamoyl]-3,3a,4,5,6,6a-hexahydro-1H-cyclopenta[c]pyrrole-2-carbonyl]-2-methyl-butyl]-2-chloro-2-fluoro-acetamide]
- IC50 (MERS-CoV 3CLpro): 148 nM
- IC50 (HCoV-229E 3CLpro): 52 nM
- IC50 (SARS-CoV 3CLpro): 17 nM
- IC50 (SARS-CoV-2 3CLpro): 10 nM

Structure (SMILES): CC[C@H](C)[C@H](NC(=O)[C@@H](F)Cl)C(=O)N1C[C@@H]2CCC[C@@H]2[C@H]1C(=O)NN(C[C@H]1CCCNC1=O)C(=O)[C@@H](F)Cl [Example 193, (2S)—N-[(1S,2S)-1-[(3S,3aS,6aR)-3-[[[(2S)-2-chloro-2-fluoro-acetyl]-[[(3R)-2-oxo-3-piperidyl]methyl]amino]carbamoyl]-3,3a,4,5,6,6a-hexahydro-1H-cyclopenta[c]pyrrole-2-carbonyl]-2-methyl-butyl]-2-chloro-2-fluoro-acetamide]
- IC50 (MERS-CoV 3CLpro): 110 nM
- IC50 (HCoV-229E 3CLpro): 49 nM
- IC50 (SARS-CoV 3CLpro): 33 nM
- IC50 (SARS-CoV-2 3CLpro): 17 nM

Structure (SMILES): CC[C@H](C)[C@H](NC(=O)[C@H](F)Cl)C(=O)N1C[C@H]2[C@@H]([C@H]1C(=O)NN(C[C@H]1CCCNC1=O)C(=O)[C@H](F)Cl)C2(C)C [Example 194, (2R)-2-chloro-N-[(1S,2S)-1-[(1R,2S,5S)-2-[[[(2R)-2-chloro-2-fluoro-acetyl]-[[(3R)-2-oxo-3-piperidyl]methyl]amino]carbamoyl]-6,6-dimethyl-3-azabicyclo[3.1.0]hexane-3-carbonyl]-2-methyl-butyl]-2-fluoro-acetamide]
- IC50 (MERS-CoV 3CLpro): 112 nM
- IC50 (HCoV-229E 3CLpro): 29 nM
- IC50 (SARS-CoV 3CLpro): 25 nM
- IC50 (SARS-CoV-2 3CLpro): 15 nM

Structure (SMILES): CC[C@H](C)[C@H](NC(=O)[C@@H](F)Cl)C(=O)N1C[C@H]2[C@@H]([C@H]1C(=O)NN(C[C@H]1CCCNC1=O)C(=O)[C@@H](F)Cl)C2(C)C [Example 195, (2S)-2-chloro-N-[(1S,2S)-1-[(1R,2S,5S)-2-[[[(2S)-2-chloro-2-fluoro-acetyl]-[[(3R)-2-oxo-3-piperidyl]methyl]amino]carbamoyl]-6,6-dimethyl-3-azabicyclo[3.1.0]hexane-3-carbonyl]-2-methyl-butyl]-2-fluoro-acetamide]
- IC50 (MERS-CoV 3CLpro): 112 nM
- IC50 (HCoV-229E 3CLpro): 29 nM
- IC50 (SARS-CoV 3CLpro): 51 nM
- IC50 (SARS-CoV-2 3CLpro): 28 nM

Structure (SMILES): CC(C)(C)[C@H](NC(=O)[C@@H]1CC1(F)F)C(=O)N1C[C@@H]2CCC[C@@H]2[C@H]1C(=O)NN(C[C@@H]1CCCNC1=O)C(=O)[C@H](F)Cl [Example 196, (1S)—N-[(1S)-1-[(3S,3aS,6aR)-3-[[[(2R)-2-chloro-2-fluoro-acetyl]-[[(3S)-2-oxo-3-piperidyl]methyl]amino]carbamoyl]-3,3a,4,5,6,6a-hexahydro-1H-cyclopenta[c]pyrrole-2-carbonyl]-2,2-dimethyl-propyl]-2,2-difluoro-cyclopropanecarboxamide]
- IC50 (MERS-CoV 3CLpro): 89 nM
- IC50 (HCoV-229E 3CLpro): 38 nM
- IC50 (SARS-CoV 3CLpro): 14 nM
- IC50 (SARS-CoV-2 3CLpro): 11 nM

Structure (SMILES): CC(C)(C)[C@H](NC(=O)[C@@H]1CC1(F)F)C(=O)N1C[C@@H]2CCC[C@@H]2[C@H]1C(=O)NN(C[C@@H]1CCCNC1=O)C(=O)[C@@H](F)Cl [Example 197, (1S)—N-[(1S)-1-[(3S,3aS,6aR)-3-[[[(2S)-2-chloro-2-fluoro-acetyl]-[[(3S)-2-oxo-3-piperidyl]methyl]amino]carbamoyl]-3,3a,4,5,6,6a-hexahydro-1H-cyclopenta[c]pyrrole-2-carbonyl]-2,2-dimethyl-propyl]-2,2-difluoro-cyclopropanecarboxamide]
- IC50 (MERS-CoV 3CLpro): 94 nM
- IC50 (HCoV-229E 3CLpro): 65 nM
- IC50 (SARS-CoV 3CLpro): 13 nM
- IC50 (SARS-CoV-2 3CLpro): 11 nM
